What is called Ki is a measure of affinity in units of concentration, obtained from inhibition or displacement. A high value points to a looser hold on the target.

This test has as its target T1, Adenosine deaminase (Bos taurus, UniProt P56658).
T1 sequence (P56658 whole entry): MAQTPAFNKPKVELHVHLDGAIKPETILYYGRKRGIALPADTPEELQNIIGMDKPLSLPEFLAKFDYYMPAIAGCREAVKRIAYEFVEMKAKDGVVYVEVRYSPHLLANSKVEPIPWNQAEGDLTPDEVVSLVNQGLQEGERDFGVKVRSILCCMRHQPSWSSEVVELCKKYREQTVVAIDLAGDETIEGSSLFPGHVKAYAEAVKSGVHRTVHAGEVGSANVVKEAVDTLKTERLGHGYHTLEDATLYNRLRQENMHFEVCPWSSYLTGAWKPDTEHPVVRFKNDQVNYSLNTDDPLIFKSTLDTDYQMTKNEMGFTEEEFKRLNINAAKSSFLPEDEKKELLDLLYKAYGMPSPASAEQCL
Description: Inhibition of Adenosine deaminase (ADA) of calf intestine

As for `CCCCOC[C@H]([C@H](C)O)n1cnc2c(N)ncnc21`, the affinity, expressed as Ki, was 123 nM.

`C[C@H](O)[C@@H](COCCc1ccccc1)n1cnc2c(N)ncnc21` displayed a Ki of 93.1 nM.

Values taken from ChEMBL document CHEMBL1133542, “Adenosine deaminase inhibitors: synthesis and biological evaluation of unsaturated, aromatic, and oxo derivatives of (+)-erythro-9-(2'S-hydroxy-3'R-nonyl)adenine [(+)-EHNA]” (J Med Chem, 2000).
